Measurements: ChEMBL document CHEMBL1131583, “Structure-based design and synthesis of lipophilic 2,4-diamino-6-substituted quinazolines and their evaluation as inhibitors of dihydrofolate reductases and potential antitumor agents” (J Med Chem, 1998)

Experiments:
Dihydrofolate reductase [1] = target: T1, Dihydrofolate reductase (Rattus norvegicus, UniProt Q920D2); assay: Inhibitory activity against Dihydrofolate reductase from rat liver (rlDHFR)
T1 sequence (Q920D2 whole entry): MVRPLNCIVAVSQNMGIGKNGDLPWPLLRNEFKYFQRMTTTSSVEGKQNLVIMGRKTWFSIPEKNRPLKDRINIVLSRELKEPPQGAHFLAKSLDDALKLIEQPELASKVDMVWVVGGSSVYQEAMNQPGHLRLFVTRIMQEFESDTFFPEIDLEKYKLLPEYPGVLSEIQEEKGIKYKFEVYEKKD

Dihydrofolate reductase [2] = target: T2, Dihydrofolate reductase (Lactobacillus casei, UniProt P00381)
T2 sequence (P00381 whole entry): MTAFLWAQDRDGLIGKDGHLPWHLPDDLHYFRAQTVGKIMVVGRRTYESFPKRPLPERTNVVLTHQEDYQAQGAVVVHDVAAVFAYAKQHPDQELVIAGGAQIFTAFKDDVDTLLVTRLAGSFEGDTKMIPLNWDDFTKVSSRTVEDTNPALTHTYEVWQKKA
Description: Inhibitory activity against Dihydrofolate reductase from Lactobacillus casei (lcDHFR)

Dihydrofolate reductase [3] = target: T3, Dihydrofolate reductase (Homo sapiens, UniProt P00374)
T3 sequence (P00374 whole entry): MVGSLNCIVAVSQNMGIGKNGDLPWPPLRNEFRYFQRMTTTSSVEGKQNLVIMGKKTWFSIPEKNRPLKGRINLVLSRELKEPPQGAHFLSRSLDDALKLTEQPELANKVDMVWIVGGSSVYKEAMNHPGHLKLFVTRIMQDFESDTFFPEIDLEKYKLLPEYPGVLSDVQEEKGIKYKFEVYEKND
Description: Inhibitory activity against Dihydrofolate reductase from recombinant human (hDHFR)

Dihydrofolate reductase [4] = target: T4, Dihydrofolate reductase (Pneumocystis carinii, UniProt P16184)
T4 sequence (P16184 whole entry): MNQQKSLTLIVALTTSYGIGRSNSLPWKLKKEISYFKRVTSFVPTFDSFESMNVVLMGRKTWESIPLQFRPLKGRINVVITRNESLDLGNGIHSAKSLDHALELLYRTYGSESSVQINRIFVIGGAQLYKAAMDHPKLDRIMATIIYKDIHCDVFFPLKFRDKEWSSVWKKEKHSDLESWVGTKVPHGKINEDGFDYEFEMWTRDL
Description: Inhibitory activity against Dihydrofolate reductase from Pneumocystis carinii (pcDHFR)

[5] = target: T5, Bifunctional dihydrofolate reductase-thymidylate synthase (Toxoplasma gondii, UniProt Q07422)
T5 sequence (Q07422 whole entry): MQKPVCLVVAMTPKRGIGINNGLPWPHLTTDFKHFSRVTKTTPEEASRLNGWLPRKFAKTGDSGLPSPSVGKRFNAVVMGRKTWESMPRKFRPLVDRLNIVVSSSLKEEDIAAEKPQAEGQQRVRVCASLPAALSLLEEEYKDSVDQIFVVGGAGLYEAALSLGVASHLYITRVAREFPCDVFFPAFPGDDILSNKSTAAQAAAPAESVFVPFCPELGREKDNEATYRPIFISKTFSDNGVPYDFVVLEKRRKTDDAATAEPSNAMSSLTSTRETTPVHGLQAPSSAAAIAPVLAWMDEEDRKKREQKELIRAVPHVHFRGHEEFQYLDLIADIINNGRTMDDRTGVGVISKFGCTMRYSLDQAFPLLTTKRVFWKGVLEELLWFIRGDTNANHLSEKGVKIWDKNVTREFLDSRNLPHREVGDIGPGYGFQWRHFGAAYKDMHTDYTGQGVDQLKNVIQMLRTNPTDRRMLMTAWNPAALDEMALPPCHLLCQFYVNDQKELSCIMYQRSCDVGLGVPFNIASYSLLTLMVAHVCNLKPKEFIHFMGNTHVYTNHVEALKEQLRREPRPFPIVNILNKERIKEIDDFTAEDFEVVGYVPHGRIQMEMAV
Description: Inhibitory activity against Dihydrofolate reductase from Toxoplasma gondii (tgDHFR)

[6] = target: T5, Bifunctional dihydrofolate reductase-thymidylate synthase; assay: Inhibition of recombinant Dihydrofolate reductase from Toxoplasma gondii (tgDHFR)
[7] = Partition coefficient (logP); type: physicochemical; details: octanol/water
Dihydrofolate reductase [8] = target: T2, Dihydrofolate reductase; assay: Inhibitory activity against Dihydrofolate reductase from Lactobacillus casei ( lcDHFR); set-up: species or system Lacticaseibacillus casei
[9] = target: T5, Bifunctional dihydrofolate reductase-thymidylate synthase; assay: Inhibitory activity against recombinant Dihydrofolate reductase from Toxoplasma gondii (tgDHFR)

Row | Structure (SMILES) | IC50 (Dihydrofolate reductase [1]) [nM] | IC50 (Dihydrofolate reductase [2]) [nM] | IC50 (Dihydrofolate reductase [3]) [nM] | IC50 (Dihydrofolate reductase [4]) [nM] | logP [7] | IC50 [5] [nM] | IC50 [6] [nM] | IC50 (Dihydrofolate reductase [8]) [nM] | IC50 [9] [nM]
1 | COc1cc(CNc2ccc3nc(N)nc(N)c3c2)cc(OC)c1 | 840 | 2300 | 28000 | 2200 | – | 120 | 840 | – | –
2 | COc1cc(CN(C)c2ccc3nc(N)nc(N)c3c2)cc(OC)c1 | 8.2 | – | 11 | 23.8 | – | 9.3 | 4.7 | 37 | –
3 | CN(Cc1cccc2c1CCCC2)c1ccc2nc(N)nc(N)c2c1 | 17 | 21 | 27 | 17 | – | – | – | – | –
4 | COc1cc(NCc2ccc3nc(N)nc(N)c3c2C)cc(OC)c1OC [TRIMETREXATE] | – | 260 | – | – | – | – | – | – | –
5 | COc1cc(OC)c(CNc2ccc3nc(N)nc(N)c3c2)c(OC)c1 | 22700 | 37000 | 25000 | 116000 | – | – | – | – | –
6 | COc1ccc(OC)c(CNc2ccc3nc(N)nc(N)c3c2)c1 | 1100 | 3000 | 28000 | 4600 | – | 160 | 1100 | – | –
7 | Nc1nc(N)c2cc(NCc3ccccc3)ccc2n1 | 660 | 2700 | 2400 | 8700 | – | 320 | – | – | 1400
8 | COc1cc(CNc2ccc3nc(N)nc(N)c3c2)cc(OC)c1OC | 900 | 2800 | 23000 | 6800 | – | 84 | 920 | – | –
9 | COc1cc(CNc2cnc3nc(N)nc(N)c3c2)cc(OC)c1OC | – | – | – | – | 0.89 | 395 | – | – | –
10 | COc1cc(OC)c(OC)cc1CNc1ccc2nc(N)nc(N)c2c1 | 1600 | 1600 | – | 5400 | – | 124 | 540 | – | –
11 | COc1cc(CN(C)c2cnc3nc(N)nc(N)c3c2)cc(OC)c1 | – | – | – | – | 1.87 | – | – | – | –
12 | COc1ccc(CNc2ccc3nc(N)nc(N)c3c2)c(OC)c1OC | 1300 | 2000 | 27000 | 4900 | – | 190 | 810 | – | –

Continued, in another order:

Row | IC50 (Dihydrofolate reductase [1]) [nM] | IC50 (Dihydrofolate reductase [2]) [nM] | IC50 (Dihydrofolate reductase [3]) [nM] | IC50 (Dihydrofolate reductase [4]) [nM] | logP [7] | Structure (SMILES) | IC50 [5] [nM] | IC50 [6] [nM] | IC50 (Dihydrofolate reductase [8]) [nM] | IC50 [9] [nM]
13 | – | – | – | – | 1.32 | COc1ccc(OC)c(CNc2cnc3nc(N)nc(N)c3c2)c1 | – | – | – | –
14 | 19 | 59 | 140 | 52 | – | COc1ccc(CN(C)c2ccc3nc(N)nc(N)c3c2)c(OC)c1OC | 17 | 5.4 | – | –
15 | 43 | 120 | 50 | 100 | – | COc1ccc(CN(C)c2ccc3nc(N)nc(N)c3c2)c(OC)c1 | 39 | 3.9 | – | –
16 | – | – | – | 87 | – | COc1ccc(OC)c(CN(C)c2ccc3nc(N)nc(N)c3c2)c1 | 30 | 3.9 | 130 | –
17 | – | – | – | – | 1.87 | COc1ccc(OC)c(CN(C)c2cnc3nc(N)nc(N)c3c2)c1 | – | – | – | –
18 | 1200 | 2100 | – | 4400 | – | COc1ccc(CNc2ccc3nc(N)nc(N)c3c2)c(OC)c1 | 170 | 780 | – | –
